According to ChEMBL document CHEMBL1130462, “New enone derivatives of oleanolic acid and ursolic acid as inhibitors of nitric oxide production in mouse macrophages” (Bioorg Med Chem Lett, 1997):

Organism: Mus musculus
Assay: Compound was measured for its inhibitory activity on IFN-gamma-induced nitric oxide production in mouse macrophage; toxic at 5-10 uM
Format: functional

SMILES | IC50
C[C@@H]1CC[C@]2(C(=O)O)CC[C@]3(C)C(=CC[C@@H]4[C@@]5(C)CC[C@H](O)C(C)(C)[C@@H]5CC[C@]43C)C2[C@H]1C (stereo partly drawn) | toxic at 5-10 uM

Organism: Mus musculus
Assay: Compound was measured for its inhibitory activity on IFN-gamma-induced nitric oxide production in mouse macrophage
Format: functional

IC50 [µM] | SMILES
0.015 | C[C@]12CCC(=O)C=C1CCC1[C@@H]2[C@@H](O)C[C@@]2(C)[C@H]1CC[C@]2(O)C(=O)CO (single isomer, unassigned) [HYDROCORTISONE]

Organism: Mus musculus
Assay: Inhibitory activity on IFN-gamma-induced nitric oxide production in mouse macrophage at a concentration of 0.1-40 uM
Format: functional

SMILES | IC50 [µM]
COC1=C[C@]2(C)[C@H]3CC=C4C5CC(C)(C)CC[C@]5(C(=O)O)CC[C@@]4(C)[C@]3(C)CC[C@H]2C(C)(C)C1=O (stereo partly drawn) | 30
CC1(C)CC[C@]2(C(=O)O)CC[C@]3(C)C(C(=O)C[C@@H]4[C@@]5(C)C=CC(=O)C(C)(C)[C@@H]5CC[C@]43C)C2C1 (stereo partly drawn) | 3.3
CC1(C)CC[C@]2(C(=O)O)CC[C@]3(C)C(CC=C4[C@@]5(C)C=CC(=O)C(C)(C)[C@@H]5CC[C@]43C)C2C1 (stereo partly drawn) | 5.2
CC1(C)CC[C@]2(C(=O)O)CC[C@]3(C)C(=CC[C@@H]4[C@@]5(C)CC[C@H](O)C(C)(C)[C@@H]5CC[C@]43C)[C@@H]2C1 [OLEANOLIC_ACID] | 40
CC1(C)CC[C@]2(C(=O)O)CC[C@]3(C)C(CC[C@@H]4[C@@]5(C)C=CC(=O)C(C)(C)[C@@H]5CC[C@]43C)C2C1 (stereo partly drawn) | 8.5
COC(=O)[C@]12CCC(C)(C)CC1C1=CC[C@@H]3[C@@]4(C)C=CC(=O)C(C)(C)[C@@H]4CC[C@@]3(C)[C@]1(C)CC2 (stereo partly drawn) | 40
C[C@@H]1CC[C@]2(C(=O)O)CC[C@]3(C)C(=CC[C@@H]4[C@@]5(C)C=CC(=O)C(C)(C)[C@@H]5CC[C@]43C)C2[C@H]1C (stereo partly drawn) | 17.6
CC1(C)CC[C@]2(C(=O)O)CC[C@]3(C)C(=CC[C@@H]4[C@@]5(C)C=CC(=O)C(C)(C)[C@@H]5CC[C@]43C)C2C1 (stereo partly drawn) | 6
CC1(C)CC[C@]2(C(=O)O)CC[C@]3(C)C(=CC[C@@H]4[C@@]5(C)C=C(O)C(=O)C(C)(C)[C@@H]5CC[C@]43C)C2C1 (stereo partly drawn) | 26.5

The remaining lines, values ahead:

IC50 [µM] | SMILES
1.8 | CC1(C)CC[C@]2(C(=O)O)CC[C@]3(C)C(=CC(=O)[C@@H]4[C@@]5(C)C=CC(=O)C(C)(C)[C@@H]5CC[C@]43C)C2C1 (stereo partly drawn)
35.5 | CC1(C)CC[C@]2(C(=O)O)CC[C@]3(C)C(CC4OC45[C@@]4(C)C=CC(=O)C(C)(C)[C@@H]4CC[C@]53C)C2C1 (stereo partly drawn)
2.6 | CC1(C)CC[C@]2(C(=O)O)CC[C@]3(C)C(=C2C1)CC(=O)[C@@H]1[C@@]2(C)C=CC(=O)C(C)(C)[C@@H]2CC[C@]13C
5.1 | C[C@@H]1CC[C@]2(C(=O)O)CC[C@]3(C)C(=CC(=O)[C@@H]4[C@@]5(C)C=CC(=O)C(C)(C)[C@@H]5CC[C@]43C)C2[C@H]1C (stereo partly drawn)
9.7 | CC1(C)CC[C@]2(C(=O)O)CC[C@]3(C)C(=C2C1)C=C[C@@H]1[C@@]2(C)C=CC(=O)C(C)(C)[C@@H]2CC[C@]13C
37.1 | CC1(C)CC[C@]2(C(=O)O)CC[C@]3(C)C(=CC[C@@H]4[C@@]5(C)CCC(=O)C(C)(C)[C@@H]5CC[C@]43C)[C@@H]2C1 [OLEANONIC ACID]
0.9 | CC1(C)CC[C@]2(C(=O)O)CC[C@]3(C)[C@H](C(=O)C=C4[C@@]5(C)C=CC(=O)C(C)(C)[C@@H]5CC[C@]43C)[C@@H]2C1
